Values after ≈ are worked out from the molar mass of the structure shown.
Key:
MCF7 = assay: Antiproliferative activity against human MCF7 cells assessed as inhibition of cell proliferation incubated for 72 hrs by MTT assay; type: functional, cell-based; conditions: MCF7, 72 h
Plasmodium falciparum [1] = assay: Antiplasmodial activity against Plasmodium falciparum K1 assessed as reduction in parasite growth by fluorescence based assay; type: functional, organism-based
Breast carcinoma cell = assay: Cytotoxicity against human Breast carcinoma cell assessed as reduction in cell viability by colorimetric assay; type: functional, cell-based
KB [2] = assay: Cytotoxicity against human KB cells assessed as reduction in cell viability by colorimetric assay; type: functional, cell-based
[3] = system: Mycobacterium tuberculosis; assay: Antimycobacterial activity against Mycobacterium tuberculosis H37Rv assessed as inhibition of bacterial growth by Microplate alamar blue assay; type: functional, organism-based
Streptococcus agalactiae = assay: Antibacterial activity against Streptococcus agalactiae ATCC 12386 assessed as reduction in bacterial growth by microbroth dilution method; type: functional
[4] = Inhibition of melanin in human melanocyte; type: functional, cell-based
RAW264.7 = assay: Antiinflammatory activity in mouse RAW264.7 cells assessed as inhibition of LPS-induced NO production at 50 uM measured after 24 hrs by Griess method; type: functional, cell-based; conditions: RAW264.7, 24 h
Plasmodium falciparum [5] = assay: Antiplasmodial activity against Plasmodium falciparum D6 assessed as reduction in plasmodial growth after 48 hrs by fluorescence based analysis; type: functional, organism-based; conditions: D6, 48 h
Staphylococcus aureus [6] = assay: Antibacterial activity against methicillin-resistant Staphylococcus aureus ATCC 25923 assessed as bacterial growth inhibition by broth dilution method; type: functional, organism-based
Staphylococcus aureus [7] = assay: Antibacterial activity against Staphylococcus aureus ATCC 25923 assessed as bacterial growth inhibition by broth dilution method; type: functional, organism-based
BMDC = assay: Anti-inflammatory activity against LPS-induced C57BL/6 mouse BMDC cells assessed as inhibition of IL-12 production at 25 uM by ELISA method; type: functional; design: scale not given: the % may be the effect or the level left
HL-60 = assay: Antiproliferative activity against human HL-60 cells assessed as reduction in cell viability at 12.5 ug/ml by tryphan blue staining assay; type: functional; conditions: dose 12.5 µg/ml
A2780 = assay: Antiproliferative activity against human A2780 cells assessed as reduction in cell viability incubated for 96 hrs by MTT assay; type: functional, cell-based; conditions: A2780, 96 h
Mus musculus = organism: Mus musculus; assay: Reduction in hepatic steatosis in HFD-induced C57BL/6J mouse model assessed as reduction in serum LDL level […]; type: functional, organism-based
Neuraminidase = Neuraminidase (Influenza A virus, UniProt B4URF0); assay: Inhibition of Influenza A virus H5N1 neuraminidase
Staphylococcus aureus [8] = assay: Antibacterial activity against methicillin-resistant Staphylococcus aureus assessed as bacterial growth inhibition; type: functional, organism-based
Staphylococcus aureus [9] = assay: Antibacterial activity against methicillin-resitant Staphylococcus aureus N1 assessed as reduction in bacterial growth by microbroth dilution method; type: functional
Plasmodium falciparum [10] = assay: Antiplasmodial activity against Plasmodium falciparum W2 assessed as reduction in plasmodial growth after 48 hrs by fluorescence based analysis; type: functional, organism-based; conditions: W2, 48 h
K562 = assay: Cytotoxicity activity against human K562 cells assessed as reduction in cell viability […] measured after 72 hrs by MTT assay; type: functional, cell-based; conditions: K562, 72 h
[11] = Cytotoxicity activity against human Lucena 1 cells assessed as reduction in cell viability […] measured after 72 hrs by MTT assay; type: functional, cell-based; conditions: Lucena 1, 72 h
[12] = Cytotoxicity against mouse RAW264.7 cells assessed as increase in NO production measured after 48 hrs by MTT assay; type: toxicity, cell-based
HeLa = assay: Cytotoxicity against human HeLa cells assessed as reduction in cell proliferation incubated for 24 hrs by MTT assay; type: functional, cell-based
DLD-1 = assay: Cytotoxicity against human DLD-1 cells assessed as reduction in cell proliferation incubated for 24 hrs by MTT assay; type: functional, cell-based; conditions: DLD-1, 24 h
CCRF-CEM = assay: Cytotoxicity against human CCRF-CEM cells assessed as reduction in cell viability incubated for 72 hrs by MTT assay; type: functional, cell-based
KB [13] = assay: Antiproliferative activity against human KB cells assessed as reduction in cell viability after 72 hrs by SRB assay; type: functional

Sequence of Neuraminidase (B4URF0 whole entry): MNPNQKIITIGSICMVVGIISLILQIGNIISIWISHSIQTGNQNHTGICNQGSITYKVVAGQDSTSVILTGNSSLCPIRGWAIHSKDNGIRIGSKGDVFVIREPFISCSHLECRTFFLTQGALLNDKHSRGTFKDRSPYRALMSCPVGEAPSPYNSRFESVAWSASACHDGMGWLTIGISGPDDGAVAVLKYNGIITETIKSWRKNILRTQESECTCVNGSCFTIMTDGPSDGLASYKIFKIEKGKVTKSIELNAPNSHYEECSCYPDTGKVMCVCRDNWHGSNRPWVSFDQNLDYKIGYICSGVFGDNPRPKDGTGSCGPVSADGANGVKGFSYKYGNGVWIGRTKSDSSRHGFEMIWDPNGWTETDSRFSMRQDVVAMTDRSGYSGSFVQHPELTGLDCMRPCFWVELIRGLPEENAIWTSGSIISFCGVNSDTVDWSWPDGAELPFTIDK

O=C1c2ccccc2C(=O)C2C1OCC1c3cc4c(cc3OC12)OCO4 (centres undefined)
IC50 (MCF7): 29 µM

CC(C)=CCc1cc2c(cc1O)OC[C@H]1c3ccc(O)c(CC=C(C)C)c3O[C@@H]21 [ERYBRAEDIN C]
IC50 (Plasmodium falciparum [1]): 5.5 µg/mL (≈ 14 µM)
IC50 (Breast carcinoma cell): 2.9 µg/mL (≈ 7.39 µM)
IC50 (KB [2]): 5.1 µg/mL (≈ 13 µM)
IC50 [3]: 50 µg/mL (≈ 127 µM)
MIC (Streptococcus agalactiae): 0.78 µg/mL (≈ 1.99 µM)

CC(C)=CCc1cc2c(cc1O)OC[C@H]1c3c4c(c(O)c(CC=C(C)C)c3O[C@@H]21)OC(C)(C)CC4
IC50 [4]: 0.4 µM

COc1ccc2c(c1OC)O[C@H]1c3ccc(O[C@H]4O[C@H](CO)[C@@H](O)[C@H](O)[C@H]4O)cc3OC[C@@H]21
EC50 (RAW264.7): 14.7 µM

COc1ccc2c(c1CC=C(C)C)O[C@H]1c3ccc(OC(C)=O)cc3OC[C@@H]21
IC50 (Plasmodium falciparum [5]): 34.8 µg/mL

COc1ccc2c(c1)OCc1c-2oc2c3c(c(O)cc12)OC(C)(C)C=C3 [LESPEFLORIN H2]
IC50 [4]: 1.48 µM

CC(C)=CCc1c(O)c(C)cc2c1O[C@H]1c3cc4c(cc3OC[C@@H]21)OC(C)(C)C=C4 [LESPECYRTIN E5]
IC50 [4]: 1.5 µM

O=C1c2ccccc2C(=O)C2C1OCC1c3cc(O)c(O)cc3OC12 (centres undefined)
IC50 (MCF7): 115 µM

COc1ccc2c(c1CC=C(C)C)O[C@H]1c3ccc(C)cc3OC[C@@]21O
IC50 (Staphylococcus aureus [6]): 64 µg/mL (≈ 182 µM)
IC50 (Staphylococcus aureus [7]): 64 µg/mL (≈ 182 µM)

COc1ccc2c(c1OC)OC1c3ccc(O[C@H]4O[C@H](CO)[C@@H](O)[C@H](O)[C@H]4O)cc3OCC21 (some centres undefined)
Activity (BMDC): 10%

COc1cc2c(cc1OCc1ccccc1)C1COC3C(=O)c4ccccc4C(=O)C3C1O2 (centres undefined)
IC50 (MCF7): > 100 µM

COc1ccc2c(c1)O[C@@H]1c3ccc(O)cc3OC[C@H]21
Activity (HL-60): 57.4%

COc1ccc2c(c1)O[C@@H]1c3ccc(O)c(O)c3OC[C@H]21
Activity (HL-60): 72.1%

C=C(CO)[C@H]1Cc2cc3c(cc2O1)OC[C@H]1c2cc4c(cc2O[C@@H]31)OCO4
IC50 (A2780): > 54.4 µM

CC(C)(O)c1cc2cc3c(cc2o1)OC[C@@]1(O)c2ccc(O)cc2O[C@@H]31
IC50 (Mus musculus): 19.8 µM

O=c1oc2cc(O)ccc2c2oc3cc(O)ccc3c12 [COUMESTROL]
IC50 (Neuraminidase): 37.8 µM
IC50 (Mus musculus): 0.9 µM

C=C(C)[C@@H]1Cc2cc3c(cc2O1)OC[C@@]1(O)c2ccc(O)cc2O[C@@H]31 [GLYCEOLLIN III]
IC50 (Mus musculus): 45 µM

CC(C)=CCc1cc2c(cc1O)OCc1c-2oc2c(CC=C(C)C)c(O)ccc12 [ERYCRYSTAGALLIN]
IC50 (Staphylococcus aureus [8]): 6.25 µg/mL (≈ 16 µM)
MIC (Staphylococcus aureus [9]): 0.78 µg/mL (≈ 2 µM)

COc1cc2c(cc1OCc1ccccc1)OC1C2COC2C(=O)c3ccccc3C(=O)C21 (centres undefined)
IC50 (MCF7): 27.7 µM

CC1(C)C=Cc2cc3c(cc2O1)OCC1c2ccc(O)cc2OC31 (centres undefined)
IC50 (Plasmodium falciparum [5]): 19.4 µM
IC50 (Plasmodium falciparum [10]): 17 µM

COc1cc2c(cc1O)O[C@@H]1C3=C(OC[C@H]21)C(=O)c1ccccc1C3=O
IC50 (K562): 4.5 µM
IC50 [11]: 4.49 µM

COc1cc(Br)c2c(c1CC=C(C)C)O[C@H]1c3ccc(O)cc3OC[C@@H]21
IC50 (Plasmodium falciparum [5]): 12.9 µg/mL

COc1cc2c(cc1O)OC1C2COC2C(=O)c3ccccc3C(=O)C21 (centres undefined)
IC50 (MCF7): 5.3 µM

COc1ccc2c(c1)OC[C@H]1c3cc(O)c(OC)c(CC=C(C)C)c3O[C@@H]21 [LESPEFLORIN G8]
IC50 [4]: 1.63 µM

COc1ccc2c(c1)O[C@@H]1c3ccc(OC)cc3OC[C@H]21
Activity (HL-60): 52.5%

COc1cc2c(cc1CC=C(C)C)[C@@H]1Oc3cc(O)ccc3[C@@H]1CO2
IC50 (Staphylococcus aureus [8]): 6.25 µg/mL (≈ 18.5 µM)

C=C/C(C)=C/c1c(O)ccc2c1OC[C@H]1c3cc(C)c(O)c(CC=C(C)C)c3O[C@@H]21
IC50 [4]: 1.52 µM

CC(=O)/C(C)=C/c1c(O)ccc2c1O[C@H]1c3ccc(O)cc3OC[C@@H]21
IC50 at 48 h [12]: 19 µM

COc1cc2c(cc1O)[C@@H]1Oc3c(cc(OC)c(OC)c3O)[C@@H]1CO2 [BRANDISIANIN F]
IC50 (HeLa): > 25 µM
IC50 (DLD-1): > 25 µM

COc1ccc2c(c1CC=C(C)C)O[C@H]1c3ccc(O)cc3OC[C@@]21O [ERYTHRABYSSIN I]
IC50 (CCRF-CEM): 3.36 µM

COc1ccc2c(c1OC)O[C@H]1c3ccc(O[C@H]4O[C@H](COC(C)=O)[C@@H](O)[C@H](O)[C@H]4O)cc3OC[C@@H]21
EC50 (RAW264.7): 28.7 µM

COc1ccc2c(c1CC=C(C)C)O[C@H]1c3cc(CC=C(C)C)c(O)cc3OC[C@@]21O [ERYSTAGALLIN A]
IC50 (Plasmodium falciparum [1]): 3.8 µg/mL (≈ 8.99 µM)
IC50 [3]: 12.5 µg/mL (≈ 29.6 µM)
MIC (Staphylococcus aureus [9]): 0.78 µg/mL (≈ 1.85 µM)

COc1cc2c(cc1O)C1COC3C(=O)c4ccccc4C(=O)C3C1O2 (centres undefined)
IC50 (MCF7): 7.8 µM

CC(C)=CC[C@]12COc3c(cc(O)c4c3C=CC(C)(C)O4)[C@H]1Oc1cc3c(cc12)OCO3
Activity (KB [13]): 56%

C=C(C)[C@H]1Cc2cc3c(cc2O1)OC[C@@H]1c2ccc(OC)c(O)c2O[C@H]31
IC50 (A2780): 23.2 µM

COc1cc2c(cc1O)[C@H]1COC3=C(C(=O)c4ccccc4C3=O)[C@H]1O2
IC50 [11]: 2.57 µM

CC(C)=CCc1cc2c(cc1O)OC1c3ccc(O)cc3OCC21 (centres undefined)
IC50 (CCRF-CEM): 3.73 µM

O=C1C2=C(C(=O)c3ccccc31)[C@H]1Oc3cc4c(cc3[C@H]1CO2)OCO4
IC50 (K562): 4.63 µM
IC50 [11]: 5.47 µM

CC/C=C/OC[C@H]1O[C@H](Oc2ccc3c(c2)OC[C@H]2c4ccc(OC)c(OC)c4O[C@@H]32)[C@H](O)[C@@H](O)[C@@H]1O
EC50 (RAW264.7): 19.2 µM

O=C1c2ccccc2C(=O)C2C1OCC1c3cc(OCc4ccccc4)c(OCc4ccccc4)cc3OC12 (centres undefined)
IC50 (MCF7): > 100 µM

COc1c(O)cc2c(c1CC=C(C)C)O[C@H]1c3ccc(O)cc3OC[C@@H]21
IC50 [4]: 1.44 µM

COc1ccc2c(c1OC)OC1c3ccc(O)cc3OCC21 (centres undefined)
Activity (BMDC): 45%

COc1ccc2c(c1CC=C(C)C)O[C@H]1c3ccc(O)cc3OC[C@@]21OC [ERYTHRIBYSSIN A]
IC50 (Staphylococcus aureus [6]): 32 µg/mL (≈ 86.9 µM)
IC50 (Staphylococcus aureus [7]): 64 µg/mL (≈ 174 µM)

O=C1C2=C(C(=O)c3ccccc31)[C@H]1Oc3cc(OCc4ccccc4)c(OCc4ccccc4)cc3[C@H]1CO2
IC50 (K562): 3.46 µM
IC50 [11]: 3.64 µM
